Experimental data taken from patent US8580918B2, “Peptidic GLP-2 agonists” (Ferring B.V., priority 2009, dated 2013).
Where a SMILES comes first, the peptide text is derived from it. [ ]: non-standard residue; d: D form. dPhe(4-Cl) = N[C@H](Cc1ccc(Cl)cc1)C(=O)O; dPhe(2-Cl) = N[C@H](Cc1ccccc1Cl)C(=O)O; d2Thi = N[C@H](Cc1cccs1)C(=O)O; Nle = CCCC[C@H](N)C(=O)O

experiment: Pharmacokinetics in rats after intravenous bolus injection (systemic clearance); assay type: in vivo; conditions: rat, plasma, 0.2 mg FB/kg, adult male Sprague-Dawley rats, i.v. bolus, dose 0.20 mg FB/kg, read-out: CL (ml/kg/min) Average
Experimental: Pharmacokinetic (PK) parameters of illustrative agonists of the GLP-2 receptor were determined in adult male Sprague-Dawley rats post intravenous bolus injection of compounds at doses of 0.1-1.0 mg/kg. Three or four doubly cannulated animals per compound were dosed via jugular vein, blood samples were collected at several intervals via carotid artery, and plasma samples were prepared from whole blood using K2EDTA as anticoagulant. Subsequent bioanalysis of samples included compound extraction and plasma concentration determination using standard LC/MS/MS methods. Analyte concentration was calculated from internal standard normalized peak area and calibration curves.
For calculation of PK parameters the compound concentration-time curves were analyzed with the noncompartmental data analysis software package PK Solutions 2.0™ (Summit Research Services, Montrose Colo.). The systemic clearance per kg body weight (CL) was calculated as the dose per kg body weight divided by the AUC extrapolated to infinity based on trapezoid calculation (AUC∞). Values reported are the arithmetic mean and standard deviation from the number of animals used for each compound as indicated on Table 3.

Row | Compound | clearance [mL/kg/min]
1 | CCCC[C@H](NC(=O)[C@H](CCC(=O)O)NC(=O)[C@H](CC(=O)O)NC(=O)[C@H](CO)NC(=O)[C@H](Cc1ccccc1)NC(=O)[C@H](CO)NC(=O)CNC(=O)[C@H](CC(=O)O)NC(=O)CNC(=O)[C@@H](N)Cc1cnc[nH]1)C(=O)N[C@H](Cc1ccc(Cl)cc1)C(=O)N[C@H](C(=O)N[C@H](C(=O)N[C@@H](CC(C)C)C(=O)N[C@@H](CC(=O)O)C(=O)N[C@@H](CC(N)=O)C(=O)N[C@@H](CC(C)C)C(=O)N[C@@H](C)C(=O)N[C@@H](C)C(=O)N[C@@H](CCCNC(=N)N)C(=O)N[C@@H](CC(=O)O)C(=O)N[C@@H](Cc1ccccc1)C(=O)N[C@H](C(=O)N[C@@H](CC(N)=O)C(=O)N[C@@H](Cc1c[nH]c2ccccc12)C(=O)N[C@@H](CC(C)C)C(=O)N[C@H](C(=O)N[C@@H](CCC(N)=O)C(=O)N[C@H](C(=O)N[C@@H](CCCCN)C(N)=O)[C@@H](C)O)[C@@H](C)CC)[C@@H](C)CC)[C@@H](C)CC)[C@@H](C)O [Compound 29, [Gly2,Nle10,D-Cpa11] hGLP-2 (1-30)-NH2] (H-HGDGSFSDE[Nle][dPhe(4-Cl)]TILDNLAARDFINWLIQTK-NH2) | 0.51
2 | CCCC[C@H](NC(=O)[C@H](CCC(=O)O)NC(=O)[C@H](CC(=O)O)NC(=O)[C@H](CO)NC(=O)[C@H](Cc1ccccc1)NC(=O)[C@H](CO)NC(=O)CNC(=O)[C@H](CC(=O)O)NC(=O)CNC(=O)[C@@H](N)Cc1c[nH]cn1)C(=O)N[C@H](Cc1c[nH]c2ccccc12)C(=O)N[C@H](C(=O)N[C@H](C(=O)N[C@@H](CC(C)C)C(=O)N[C@@H](CC(=O)O)C(=O)N[C@@H](CC(N)=O)C(=O)N[C@@H](CC(C)C)C(=O)N[C@@H](C)C(=O)N[C@@H](C)C(=O)N[C@@H](CCCNC(=N)N)C(=O)N[C@@H](CC(=O)O)C(=O)N[C@@H](Cc1ccccc1)C(=O)N[C@H](C(=O)N[C@@H](CC(N)=O)C(=O)N[C@@H](Cc1c[nH]c2ccccc12)C(=O)N[C@@H](CC(C)C)C(=O)N[C@H](C(=O)N[C@@H](CCC(N)=O)C(=O)N[C@H](C(=O)N[C@@H](CCCCN)C(N)=O)[C@@H](C)O)[C@@H](C)CC)[C@@H](C)CC)[C@@H](C)CC)[C@@H](C)O [Compound 30, [Gly2,Nle10,D-Trp11] hGLP-2 (1-30)-NH2] (H-HGDGSFSDE[Nle][dW]TILDNLAARDFINWLIQTK-NH2) | 1.2
3 | CCCC[C@H](NC(=O)[C@H](CCC(=O)O)NC(=O)[C@H](CC(=O)O)NC(=O)[C@H](CO)NC(=O)[C@H](Cc1ccccc1)NC(=O)[C@H](CO)NC(=O)CNC(=O)[C@H](CC(=O)O)NC(=O)CNC(=O)[C@@H](N)Cc1c[nH]cn1)C(=O)N[C@H](Cc1cccs1)C(=O)N[C@H](C(=O)N[C@H](C(=O)N[C@@H](CC(C)C)C(=O)N[C@@H](CC(=O)O)C(=O)N[C@@H](CC(N)=O)C(=O)N[C@@H](CC(C)C)C(=O)N[C@@H](C)C(=O)N[C@@H](C)C(=O)N[C@@H](CCCNC(=N)N)C(=O)N[C@@H](CC(=O)O)C(=O)N[C@@H](Cc1ccccc1)C(=O)N[C@H](C(=O)N[C@@H](CC(N)=O)C(=O)N[C@@H](Cc1c[nH]c2ccccc12)C(=O)N[C@@H](CC(C)C)C(=O)N[C@H](C(=O)N[C@@H](CCC(N)=O)C(=O)N[C@H](C(=O)N[C@@H](CCCCN)C(N)=O)[C@@H](C)O)[C@@H](C)CC)[C@@H](C)CC)[C@@H](C)CC)[C@@H](C)O [Compound 32, [Gly2,Nle10,D-Thi11] hGLP-2 (1-30)-NH2] (H-HGDGSFSDE[Nle][d2Thi]TILDNLAARDFINWLIQTK-NH2) | 1.1
4 | CCCC[C@H](NC(=O)[C@H](CCC(=O)O)NC(=O)[C@H](CC(=O)O)NC(=O)[C@H](CO)NC(=O)[C@H](Cc1ccccc1)NC(=O)[C@H](CO)NC(=O)CNC(=O)[C@H](CC(=O)O)NC(=O)CNC(=O)[C@@H](N)Cc1c[nH]cn1)C(=O)N[C@H](Cc1ccc(O)cc1)C(=O)N[C@H](C(=O)N[C@H](C(=O)N[C@@H](CC(C)C)C(=O)N[C@@H](CC(=O)O)C(=O)N[C@@H](CC(N)=O)C(=O)N[C@@H](CC(C)C)C(=O)N[C@@H](C)C(=O)N[C@@H](C)C(=O)N[C@@H](CCCNC(=N)N)C(=O)N[C@@H](CC(=O)O)C(=O)N[C@@H](Cc1ccccc1)C(=O)N[C@H](C(=O)N[C@@H](CC(N)=O)C(=O)N[C@@H](Cc1c[nH]c2ccccc12)C(=O)N[C@@H](CC(C)C)C(=O)N[C@H](C(=O)N[C@@H](CCC(N)=O)C(=O)N[C@H](C(=O)N[C@@H](CCCCN)C(N)=O)[C@@H](C)O)[C@@H](C)CC)[C@@H](C)CC)[C@@H](C)CC)[C@@H](C)O [Compound 39, [Gly2,Nle10,D-Tyr11] hGLP-2 (1-30)-NH2] (H-HGDGSFSDE[Nle][dY]TILDNLAARDFINWLIQTK-NH2) | 4.9
5 | CCCC[C@H](NC(=O)[C@H](CCC(=O)O)NC(=O)[C@H](CC(=O)O)NC(=O)[C@H](CO)NC(=O)[C@H](Cc1ccccc1)NC(=O)[C@H](CO)NC(=O)CNC(=O)[C@H](CC(=O)O)NC(=O)CNC(=O)[C@@H](N)Cc1c[nH]cn1)C(=O)N[C@H](Cc1ccccc1Cl)C(=O)N[C@H](C(=O)N[C@H](C(=O)N[C@@H](CC(C)C)C(=O)N[C@@H](CC(=O)O)C(=O)N[C@@H](CC(N)=O)C(=O)N[C@@H](CC(C)C)C(=O)N[C@@H](C)C(=O)N[C@@H](C)C(=O)N[C@@H](CCCNC(=N)N)C(=O)N[C@@H](CC(=O)O)C(=O)N[C@@H](Cc1ccccc1)C(=O)N[C@H](C(=O)N[C@@H](CC(N)=O)C(=O)N[C@@H](Cc1c[nH]c2ccccc12)C(=O)N[C@@H](CC(C)C)C(=O)N[C@H](C(=O)N[C@@H](CCC(N)=O)C(=O)N[C@H](C(=O)N[C@@H](CCCCN)C(N)=O)[C@@H](C)O)[C@@H](C)CC)[C@@H](C)CC)[C@@H](C)CC)[C@@H](C)O [Compound 40, [Gly2,Nle10,D-2-Cpa11] hGLP-2 (1-30)-NH2] (H-HGDGSFSDE[Nle][dPhe(2-Cl)]TILDNLAARDFINWLIQTK-NH2) | 0.73

same assay, conditions: rat, plasma, adult male Sprague-Dawley rats, i.v. bolus, dose 0.18 mg FB/kg, read-out: CL (ml/kg/min) Average

Row | Compound | clearance [mL/kg/min]
6 | CCCC[C@H](NC(=O)[C@H](CCC(=O)O)NC(=O)[C@H](CC(=O)O)NC(=O)[C@H](CO)NC(=O)[C@H](Cc1ccccc1)NC(=O)[C@H](CO)NC(=O)CNC(=O)[C@H](CC(=O)O)NC(=O)CNC(=O)[C@@H](N)Cc1c[nH]cn1)C(=O)N[C@H](C(=O)N[C@H](C(=O)N[C@H](C(=O)N[C@@H](CC(C)C)C(=O)N[C@@H](CC(=O)O)C(=O)N[C@@H](CC(N)=O)C(=O)N[C@@H](CC(C)C)C(=O)N[C@@H](C)C(=O)N[C@@H](C)C(=O)N[C@@H](CCCNC(=N)N)C(=O)N[C@@H](CC(=O)O)C(=O)N[C@@H](Cc1ccccc1)C(=O)N[C@H](C(=O)N[C@@H](CC(N)=O)C(=O)N[C@@H](Cc1c[nH]c2ccccc12)C(=O)N[C@@H](CC(C)C)C(=O)N[C@H](C(=O)N[C@@H](CCC(N)=O)C(=O)N[C@H](C(=O)N[C@@H](CCCCN)C(N)=O)[C@@H](C)O)[C@@H](C)CC)[C@@H](C)CC)[C@@H](C)CC)[C@@H](C)O)[C@@H](C)CC [Compound 31, [Gly2,Nle10,Ile11] hGLP-2 (1-30)-NH2] (H-HGDGSFSDE[Nle]ITILDNLAARDFINWLIQTK-NH2) | 5.6
